{"source": "paper PMC5829251", "about": "“NAD^+ analog reveals PARP-1 substrate-blocking mechanism and allosteric communication from catalytic center to DNA-binding domains” (Nature Communications, 2018)", "key": {"[1]": {"biological_target": "T1, PARP-1 triple mutant E763/D766/D770A (Homo sapiens, UniProt P09874, D766A/D770A/E763A)", "T1 construct": "Full-length PARP-1 WT (residues 1–1014) was cloned in pET28 vector and site-directed mutagenesis was performed; made in house; host or cells: E. coli", "T1 sequence (P09874 whole entry E763A/D766A/D770A, the tested form may be a part)": "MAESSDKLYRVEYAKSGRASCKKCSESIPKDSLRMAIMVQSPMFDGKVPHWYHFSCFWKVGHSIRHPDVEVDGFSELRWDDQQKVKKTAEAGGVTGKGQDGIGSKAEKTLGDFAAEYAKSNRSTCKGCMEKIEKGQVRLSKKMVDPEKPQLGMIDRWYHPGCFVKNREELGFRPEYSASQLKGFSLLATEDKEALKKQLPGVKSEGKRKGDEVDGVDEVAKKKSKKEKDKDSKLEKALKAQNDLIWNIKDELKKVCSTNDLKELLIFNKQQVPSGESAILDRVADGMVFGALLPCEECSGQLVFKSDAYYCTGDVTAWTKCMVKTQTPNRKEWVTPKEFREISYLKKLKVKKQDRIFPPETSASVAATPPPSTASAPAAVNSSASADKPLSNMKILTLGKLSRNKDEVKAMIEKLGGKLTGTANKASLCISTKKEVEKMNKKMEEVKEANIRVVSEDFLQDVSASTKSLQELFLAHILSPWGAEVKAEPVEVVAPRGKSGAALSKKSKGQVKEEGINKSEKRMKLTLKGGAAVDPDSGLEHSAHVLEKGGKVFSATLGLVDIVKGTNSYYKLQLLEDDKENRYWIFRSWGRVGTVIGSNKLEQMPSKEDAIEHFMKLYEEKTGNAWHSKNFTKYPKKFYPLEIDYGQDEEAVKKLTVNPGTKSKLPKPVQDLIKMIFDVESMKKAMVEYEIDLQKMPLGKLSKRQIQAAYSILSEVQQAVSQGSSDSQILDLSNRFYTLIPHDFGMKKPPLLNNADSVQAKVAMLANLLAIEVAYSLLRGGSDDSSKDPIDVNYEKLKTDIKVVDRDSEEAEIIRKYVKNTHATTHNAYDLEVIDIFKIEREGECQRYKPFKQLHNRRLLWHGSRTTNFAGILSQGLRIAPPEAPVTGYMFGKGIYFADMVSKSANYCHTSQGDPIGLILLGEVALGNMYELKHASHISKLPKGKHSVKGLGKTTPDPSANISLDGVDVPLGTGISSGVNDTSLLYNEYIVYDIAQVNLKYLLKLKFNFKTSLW", "assay": "DSF, full-length PARP-1 E763/D766/D770A", "assay_type": "binding", "conditions": "BAD 1250 μM", "procedure": "(§1) DSF experiments were performed as described, [13] using 5 µM protein, 2.5 µM DNA when indicated and various concentrations of compound (BAD, carba-NAD^+, benzamide, and ADP-ribose) as indicated in Fig. 1 and Fig. 3. Experiments were performed on a Roche LightCycler 480 RT-PCR. Reactions including DNA were performed with a 26- or 28-base pair (bp) unphosphorylated oligonucleotide for PARP-1, a 28-bp 5´-phosphorylated (5´P) oligonucleotide for PARP-2, and a 47-bp oligonucleotide including a central 5´P nick for PARP-3^13 in the following buffer: 25 mM Hepes pH 8.0, 150 mM NaCl, 1 mM EDTA, and 0.1 mM TCEP. Reactions with PARP-3 were conducted at lower ionic strength to allow binding to DNA as described (25 mM Hepes pH 8.0, 50 mM NaCl, 1 mM EDTA and 0.1 mM TCEP)[13]. ΔTM values were calculated by subtracting the TM determined for the protein in the absence of compound from the TM determined in the presence of compound. Experiments were performed in triplicate and a Boltzmann sigmoid was fit to the data to determine the TM values (KaleidaGraph)."}, "PARP-1 K633A": {"biological_target": "T2, PARP-1 K633A (Homo sapiens, UniProt P09874, K633A)", "T2 construct": "Full-length PARP-1 WT (residues 1–1014) was cloned in pET28 vector and site-directed mutagenesis was performed; made in house; host or cells: E. coli", "T2 sequence (P09874 whole entry K633A, the tested form may be a part)": "as the sequence (P09874 whole entry E763A/D766A/D770A, the tested form may be a part) above, with K633A, A763E, A766D, A770D counted along it", "assay": "DSF, full-length PARP-1 K633A with or without DNA", "assay_type": "binding", "conditions": "for TM: Figure 3b, BAD 1250 μM, in °C (unit assumed)", "procedure": "as §1"}, "[2]": {"biological_target": "T3, PARP-1 double mutant D766/D770A (Homo sapiens, UniProt P09874, D766A/D770A)", "T3 construct": "Full-length PARP-1 WT (residues 1–1014) was cloned in pET28 vector and site-directed mutagenesis was performed; made in house; host or cells: E. coli", "T3 sequence (P09874 whole entry D766A/D770A, the tested form may be a part)": "as the sequence (P09874 whole entry E763A/D766A/D770A, the tested form may be a part) above, with A763E counted along it", "assay": "DSF, full-length PARP-1 D766/D770A", "assay_type": "binding", "conditions": "BAD 1250 μM", "procedure": "as §1"}, "PARP-1 ΔHD": {"tested_on": "PARP-1 ΔHD", "assay": "Fluorescence polarization DNA competition assay, PARP-1 ΔHD", "assay_type": "binding, human", "conditions": "40 nM PARP-1 ΔHD, 20 nM labeled DNA, BAD 500 μM", "procedure": "For the DNA competition assay, 40 nM PARP-1 WT, or PARP-1 ΔHD, was incubated with 20 nM of dumbbell DNA with a central nick carrying an internal fluorescent FAM group (5′-GCT GAG C/FAMT/T CTGGTGAAGCTCAGCTCGCGGCAGCTGGTGCTGCCGCGA-3′) for 30 min at RT in 12 mM Hepes pH 8.0, 60 mM KCl, 8 mM MgCl2, 4% glycerol, 5.7 mM beta-mercaptoethanol, 0.05 mg per ml bovine serm albumin with or without BAD or benzamide (500 μM). A competitor unlabeled DNA of the same sequence was added at 100 nM and FP was measured over time on a VictorV plate reader (Perkin Elmer). For the DNA affinity measurement assay, increasing concentrations of PARP-1 WT were incubated for 30 min at RT with 5 nM of dumbbell DNA probe carrying a nick (described above) in the absence or presence of BAD or benzamide (100 μM) in the following buffer: 12 mM Hepes pH 8.0, 250 mM NaCl, 4% glycerol, 5.7 mM beta-mercaptoethanol, 0.05 mg per ml bovine serum albumin."}, "PARP-1 W246A": {"biological_target": "T4, PARP-1 W246A (Homo sapiens, UniProt P09874, W246A)", "T4 construct": "Full-length PARP-1 WT (residues 1–1014) was cloned in pET28 vector and site-directed mutagenesis was performed; made in house; host or cells: E. coli", "T4 sequence (P09874 whole entry W246A, the tested form may be a part)": "as the sequence (P09874 whole entry E763A/D766A/D770A, the tested form may be a part) above, with W246A, A763E, A766D, A770D counted along it", "assay": "DSF, full-length PARP-1 W246A with or without DNA", "assay_type": "binding", "conditions": "for TM: Figure 3b, BAD 1250 μM, in °C (unit assumed)", "procedure": "as §1"}, "[3]": {"conditions": "did not require the presence of DNA"}}, "data": [{"smiles": "NC(=O)c1cccc(C2OC(COP(=O)(O)OP(=O)(O)OCC3OC(n4cnc5c(N)ncnc54)C(O)C3O)C(O)C2O)c1", "note": "(centres unmarked) [BAD, benzamide adenine dinucleotide]", "values": [{"measurement": "TM", "setting": "[1]; Figure 3a, no DNA, TM without BAD 45.74, in °C (unit assumed)", "result": 50.13}, {"measurement": "TM change in the presence of BAD", "setting": "[1]; [3]", "result": "increase in TM"}, {"measurement": "TM", "setting": "PARP-1 K633A; K633A with DNA (2.5 μM), TM without BAD 44.76", "result": 44.86}, {"measurement": "TM", "setting": "PARP-1 K633A; K633A, no DNA, TM without BAD 45.50", "result": 45.32}, {"measurement": "TM shift in the presence of BAD and DNA", "setting": "PARP-1 K633A; K633A (Zn3–WGR–HD interface mutation), relative to WT", "result": "substantial reduction in TM shift"}, {"measurement": "TM", "setting": "[2]; Figure 3a, no DNA, TM without BAD 45.94", "result": 48.5, "unit": "°C"}, {"measurement": "TM change in the presence of BAD", "setting": "[2]; [3]", "result": "increase in TM"}, {"measurement": "release of full-length PARP-1 ΔHD from the labeled DNA", "setting": "PARP-1 ΔHD", "result": "did not prevent the rapid release"}, {"measurement": "TM", "setting": "PARP-1 W246A; W246A with DNA (2.5 μM), TM without BAD 47.45", "result": 47.41}, {"measurement": "TM", "setting": "PARP-1 W246A; W246A, no DNA, TM without BAD 47.24", "result": 47.23}, {"measurement": "TM shift in the presence of BAD and DNA", "setting": "PARP-1 W246A; W246A (Zn1–Zn3 interface mutation), relative to WT", "result": "substantial reduction in TM shift"}]}]}
